The results in this text go back to patent publication US5637697A, “1,5-benzodiazepine derivatives and their use in medicine” (Glaxo SpA, priority 1992, dated 1997).

One series has as its target T1, CCK-B receptor (Cavia porcellus, UniProt H0VZC5).
T1 construct: CCK-B receptor (guinea pig cortex assay); from tissue; host or cells: guinea pig cortex
In words: CCK-B receptor binding (guinea pig cortex assay). To be noted: read-out: pKi CCK-B (converted). As to the method: The greater affinity of the compounds of the invention for the CCK-B receptor over the CCK-A receptor has also been established using the CCK, receptor binding assays described by G Dal Fornos et al., J. Pharmcol. Exp & Ther. 261, 1056-1063, 1992.
The binding affinity of the compounds of the invention for the CCK-A receptor (Pancreas Assay) and CCK-B receptor (guinea pig cortex assay) was determined using the procedure of G Dal Forno et al J. Pharmacol. Exp & Ther. 261 - 1056-1063. The pKi values determined with respresentative compounds of invention were as follows: […]

In series [1] the test system is mice and rats. Nature of the series: anxiolytic activity, oral, mice and rats. The format is in vivo. To be noted: given orally to mice and rats. The text has this:
For example in mice in the black-white box test and in the rat social interaction model.
(§1) The compounds of the invention are essentially non-toxic and therapeutically useful doses.

The subject of series [2] is mice and rats. In words: oral tolerability / untoward effects in mice and rats. It counts as in vivo. Particulars: given orally to mice and rats at doses at which the compound exhibits anxiolytic activity.
Description: as §1

T1 sequence (H0VZC5 entry or part of it): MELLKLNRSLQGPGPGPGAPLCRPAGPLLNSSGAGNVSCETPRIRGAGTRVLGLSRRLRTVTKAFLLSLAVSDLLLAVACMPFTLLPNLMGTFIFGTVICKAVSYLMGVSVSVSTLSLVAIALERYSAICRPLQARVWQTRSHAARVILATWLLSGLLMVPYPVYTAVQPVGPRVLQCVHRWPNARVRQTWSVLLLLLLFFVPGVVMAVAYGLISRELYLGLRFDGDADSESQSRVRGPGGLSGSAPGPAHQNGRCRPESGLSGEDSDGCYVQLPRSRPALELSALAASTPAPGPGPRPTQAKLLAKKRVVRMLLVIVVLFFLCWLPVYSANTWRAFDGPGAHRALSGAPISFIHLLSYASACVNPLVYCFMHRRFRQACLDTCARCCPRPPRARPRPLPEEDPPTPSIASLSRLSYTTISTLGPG

`O=C(Nc1ccccc1)NC1C(=O)N(CC2CC3C=CC2C3)c2ccccc2N(c2ccccc2)C1=O` (stereo not drawn) [Example 31, N-[1-(Bicyclo[2.2.1]-5-heptene-2-ylmethyl)-2,4-dioxo-5-phenyl-2,3,4,5-tetrahydro-1H-1,5-benzodiazepin-3-yl]-N'-phenylurea]: the Ki at CCK-B receptor is 1.2 nM.
As for `O=C(Nc1ccccc1)NC1C(=O)N(CC23CC4CC(CC(C4)C2)C3)c2ccccc2N(c2ccccc2)C1=O` (single isomer, unassigned; (+)) [Example 45, (+)-N-[1-(Adamantanmethyl)-2,4-dioxo-5-phenyl-2,3,4,5-tetrahydro-1H-1,5-benzodiazepin-3-yl]-N'-phenylurea], the anxiolytic activity entry in the series with mice and rats [1] is “exhibits anxiolytic activity”. Besides, the untoward effects result in the series with mice and rats [2] is on record as “no untoward effects were obserbved”.
